Measurements published in US20250332178A1, “METHODS OF TREATING MYCOBACTERIAL INFECTIONS USING TETRACYCLINE COMPOUNDS” (priority 2018, published 2025).
≈ marks a conversion by molar mass, not a printed value. Like-named read-outs stand apart in the source and are kept apart here.

How the values were obtained:
Type in all cases: cell-based
[1] = tested on: M. chelonae; assay: MIC (CLSI broth dilution), RGM isolates; conditions: Mycobacteroides chelonae, read-out: MIC
[2] = tested on: M. immunogenum group; assay: MIC (CLSI broth dilution), RGM isolates; conditions: M. immunogenum, read-out: MIC
[3] = tested on: H37Rv strain of Mycobacterium tuberculosis; assay: MIC against H37Rv strain; conditions: Mycobacterium tuberculosis, H37RV
Description: The purpose of this study was to test activity of selected tetracycline compounds against the H37Rv strain of Mycobacterium tuberculosis. Minimum inhibitory concentrations (MIC) of different tetracycline compounds against H37Rv strain were determined and are shown in Table 8.

NC[C@H]1O[C@H](O[C@H]2[C@H](O)[C@@H](O[C@H]3O[C@H](CO)[C@@H](O)[C@H](N)[C@H]3O)[C@H](N)C[C@@H]2N)[C@H](N)C[C@@H]1O [TOB, tobramycin]
MIC ([1]; isolate 18, M. chelonae): ≤ 2 µg/mL | MIC ([1]; isolate 19, M. chelonae): ≤ 2 µg/mL | MIC ([1]; isolate 20, M. chelonae): ≤ 2 µg/mL | MIC ([1]; isolate 21, M. chelonae): ≤ 2 µg/mL | MIC ([1]; isolate 22, M. chelonae): ≤ 2 µg/mL | MIC ([2]; isolate 36, M. immunogenum group): 8 µg/mL (≈ 17.1 µM) | MIC ([2]; isolate 37, M. immunogenum group): > 8 µg/mL | MIC ([2]; isolate 38, M. immunogenum group): > 8 µg/mL

CN(C)c1cc(CNCc2cc(F)c(F)c(F)c2)c(O)c2c1C[C@H]1C[C@H]3C(N(C)C)C(O)=C(C(N)=O)C(=O)[C@@]3(O)C(O)=C1C2=O (stereo partly drawn) [Compound 77]
MIC ([3]; read-out: MIC): > 32 µg/mL

CN(C)c1cc(CN(Cc2ccn[nH]2)Cc2ccn[nH]2)c(O)c2c1C[C@H]1C[C@H]3[C@H](N(C)C)C(O)=C(C(N)=O)C(=O)[C@@]3(O)C(O)=C1C2=O [Compound 55]
MIC ([3]; read-out: MIC): > 32 µg/mL

C[C@H]1c2ccc(CNCC(C)(C)C)c(O)c2C(=O)C2=C(O)[C@]3(O)C(=O)C(C(N)=O)=C(O)[C@@H](N(C)C)[C@@H]3[C@@H](O)[C@@H]21 [Compound 33]
MIC ([3]; read-out: MIC): > 32 µg/mL

C[C@H]1c2ccc(CNCCc3ccccc3)c(O)c2C(=O)C2=C(O)[C@]3(O)C(=O)C(C(N)=O)=C(O)[C@@H](N(C)C)[C@@H]3[C@@H](O)[C@@H]21 [Compound 35]
MIC ([3]; read-out: MIC): > 32 µg/mL

Cc1cc(CNCc2cc(N(C)C)c3c(c2O)C(=O)C2=C(O)[C@]4(O)C(=O)C(C(N)=O)=C(O)[C@@H](N(C)C)[C@@H]4C[C@@H]2C3)oc1C [Compound 41]
MIC ([3]; read-out: MIC): > 32 µg/mL

CN(C)c1ccc(-c2cc(CN)c(O)c3c2C[C@H]2C[C@H]4[C@@H](N(C)C)C(O)=C(C(N)=O)C(=O)[C@@]4(O)C(O)=C2C3=O)cc1 [Compound 28]
MIC ([3]; read-out: MIC): > 32 µg/mL

CN(C)c1cc(CNCC2CCSCC2)c(O)c2c1C[C@H]1C[C@H]3C(N(C)C)C(O)=C(C(N)=O)C(=O)[C@@]3(O)C(O)=C1C2=O (stereo partly drawn) [Compound 50]
MIC ([3]; read-out: MIC): > 32 µg/mL

CN(C)c1cc(CNCC(C)(C)C)c(O)c2c1C[C@H]1C[C@H]3[C@H](N(C)C)C(O)=C(C(N)=O)C(=O)[C@@]3(O)C(O)=C1C2=O [Compound 17]
MIC ([3]; read-out: MIC): 32 µg/mL (≈ 57.5 µM)

CN(C)c1cc(CNCC2CC2)c(O)c2c1C[C@H]1C[C@H]3[C@H](N(C)C)C(O)=C(C(N)=O)C(=O)[C@@]3(O)C(O)=C1C2=O [Compound 65]
MIC ([3]; read-out: MIC): 16 µg/mL (≈ 29.6 µM)

CC(C)COC(=O)NCc1cc(N(C)C)c2c(c1O)C(=O)C1=C(O)[C@]3(O)C(=O)C(C(N)=O)=C(O)[C@H](N(C)C)[C@@H]3C[C@@H]1C2 [Compound 11]
MIC ([3]; read-out: MIC): > 32 µg/mL

CCCCNCc1cc(N(C)C)c2c(c1O)C(=O)C1=C(O)[C@]3(O)C(=O)C(C(N)=O)=C(O)[C@H](N(C)C)[C@@H]3C[C@@H]1C2 [Compound 15]
MIC ([3]; read-out: MIC): 32 µg/mL (≈ 59 µM)

CN(C)c1cc(CNc2nc(-c3ccc(F)cc3)cs2)c(O)c2c1C[C@H]1C[C@H]3C(N(C)C)C(O)=C(C(N)=O)C(=O)[C@@]3(O)C(O)=C1C2=O (stereo partly drawn) [Compound 75]
MIC ([3]; read-out: MIC): > 32 µg/mL

CC(CCO)NCc1cc(N(C)C)c2c(c1O)C(=O)C1=C(O)[C@]3(O)C(=O)C(C(N)=O)=C(O)[C@H](N(C)C)[C@@H]3C[C@@H]1C2 (stereo partly drawn) [Compound 44]
MIC ([3]; read-out: MIC): > 32 µg/mL

CN(C)[C@H]1C(O)=C(C(N)=O)C(=O)[C@@]2(O)C(O)=C3C(=O)c4c(O)c(CN)cc(-c5ccccc5)c4C[C@H]3C[C@@H]12 [Compound 32]
MIC ([3]; read-out: MIC): > 32 µg/mL

CC(C)CNCc1ccc2c(c1O)C(=O)C1=C(O)[C@]3(O)C(=O)C(C(N)=O)=C(O)[C@@H](N(C)C)[C@@H]3[C@@H](O)[C@@H]1[C@H]2C [Compound 34]
MIC ([3]; read-out: MIC): 32 µg/mL (≈ 60.4 µM)

CN(C)c1cc(CNC(=O)[C@@H]2CCCN2C)c(O)c2c1C[C@H]1C[C@H]3[C@@H](N(C)C)C(O)=C(C(N)=O)C(=O)[C@@]3(O)C(O)=C1C2=O [Compound 71]
MIC ([3]; read-out: MIC): 16 µg/mL (≈ 26.8 µM)

CN(C)CC(=O)NCc1cc(N(C)C)c2c(c1O)C(=O)C1=C(O)[C@]3(O)C(=O)C(C(N)=O)=C(O)C(N(C)C)[C@@H]3C[C@@H]1C2 (stereo partly drawn) [Compound 60]
MIC ([3]; read-out: MIC): 16 µg/mL (≈ 28 µM)

CCOC(=O)c1csc(NCc2cc(N(C)C)c3c(c2O)C(=O)C2=C(O)[C@]4(O)C(=O)C(C(N)=O)=C(O)C(N(C)C)[C@@H]4C[C@@H]2C3)n1 (stereo partly drawn) [Compound 63]
MIC ([3]; read-out: MIC): > 32 µg/mL

CCc1cc(CNCC(C)C)c(O)c2c1C[C@H]1C[C@H]3[C@H](N(C)C)C(O)=C(C(N)=O)C(=O)[C@@]3(O)C(O)=C1C2=O [Compound 30]
MIC ([3]; read-out: MIC): > 32 µg/mL

CN(C)c1cc(CNc2ccccc2)c(O)c2c1C[C@H]1C[C@H]3[C@H](N(C)C)C(O)=C(C(N)=O)C(=O)[C@@]3(O)C(O)=C1C2=O [Compound 82]
MIC ([3]; read-out: MIC): > 32 µg/mL

CN1CCC(NCc2cc(N(C)C)c3c(c2O)C(=O)C2=C(O)[C@]4(O)C(=O)C(C(N)=O)=C(O)[C@@H](N(C)C)[C@@H]4C[C@@H]2C3)CC1 [Compound 47]
MIC ([3]; read-out: MIC): > 32 µg/mL

CN(C)c1cc(CNCCc2ccccc2)c(O)c2c1C[C@H]1C[C@H]3C(N(C)C)C(O)=C(C(N)=O)C(=O)[C@@]3(O)C(O)=C1C2=O (stereo partly drawn) [Compound 5]
MIC ([3]; read-out: MIC): > 32 µg/mL

C[C@H]1c2ccc(CN3CCCCC3)c(O)c2C(=O)C2=C(O)[C@]3(O)C(=O)C(C(N)=O)=C(O)[C@@H](N(C)C)[C@@H]3[C@@H](O)[C@@H]21 [Compound 72]
MIC ([3]; read-out: MIC): 32 µg/mL (≈ 59.1 µM)

CN(C)c1cc(CNC2CCCC2)c(O)c2c1C[C@H]1C[C@H]3C(N(C)C)C(O)=C(C(N)=O)C(=O)[C@@]3(O)C(O)=C1C2=O (stereo partly drawn) [Compound 43]
MIC ([3]; read-out: MIC): > 32 µg/mL

CCCCCCOC(=O)NCc1cc(N(C)C)c2c(c1O)C(=O)C1=C(O)[C@]3(O)C(=O)C(C(N)=O)=C(O)[C@@H](N(C)C)[C@@H]3C[C@@H]1C2 [Compound 18]
MIC ([3]; read-out: MIC): > 32 µg/mL

CCCCN(CCCC)Cc1cc(N(C)C)c2c(c1O)C(=O)C1=C(O)[C@]3(O)C(=O)C(C(N)=O)=C(O)C(N(C)C)[C@@H]3C[C@@H]1C2 (stereo partly drawn) [Compound 16]
MIC ([3]; read-out: MIC): > 32 µg/mL

CCCCOC(=O)NCc1cc(N(C)C)c2c(c1O)C(=O)C1=C(O)[C@]3(O)C(=O)C(C(N)=O)=C(O)[C@H](N(C)C)[C@@H]3C[C@@H]1C2 [Compound 12]
MIC ([3]; read-out: MIC): > 32 µg/mL

CN(C)c1cc(CNC(N)=S)c(O)c2c1C[C@H]1C[C@H]3[C@H](N(C)C)C(O)=C(C(N)=O)C(=O)[C@@]3(O)C(O)=C1C2=O [Compound 61]
MIC ([3]; read-out: MIC): > 32 µg/mL

CN(C)c1cc(CNc2nc(C(F)(F)F)cs2)c(O)c2c1C[C@H]1C[C@H]3C(N(C)C)C(O)=C(C(N)=O)C(=O)[C@@]3(O)C(O)=C1C2=O (stereo partly drawn) [Compound 76]
MIC ([3]; read-out: MIC): > 32 µg/mL

CN(C)c1cc(CNC(CF)CF)c(O)c2c1C[C@H]1C[C@H]3[C@H](N(C)C)C(O)=C(C(N)=O)C(=O)[C@@]3(O)C(O)=C1C2=O [Compound 79]
MIC [3]: 32 µg/mL (≈ 56.7 µM)

CN(C)c1cc(CNC(=O)C2CCCN2)c(O)c2c1C[C@H]1C[C@H]3C(N(C)C)C(O)=C(C(N)=O)C(=O)[C@@]3(O)C(O)=C1C2=O (stereo partly drawn) [Compound 58]
MIC ([3]; read-out: MIC): 16 µg/mL (≈ 27.4 µM)

CN(C)c1cc(CNCc2cccn2C)c(O)c2c1C[C@H]1C[C@H]3[C@H](N(C)C)C(O)=C(C(N)=O)C(=O)[C@@]3(O)C(O)=C1C2=O [Compound 38]
MIC ([3]; read-out: MIC): > 32 µg/mL

CN(C)c1cc(CN2CCCC2)c(O)c2c1C[C@H]1C[C@H]3C(N(C)C)C(O)=C(C(N)=O)C(=O)[C@@]3(O)C(O)=C1C2=O (stereo partly drawn) [Compound 83]
MIC ([3]; read-out: MIC): 32 µg/mL (≈ 59.2 µM)

CC(=O)c1ccc(NC(=O)NCc2cc(N(C)C)c3c(c2O)C(=O)C2=C(O)[C@]4(O)C(=O)C(C(N)=O)=C(O)[C@@H](N(C)C)[C@@H]4C[C@@H]2C3)cc1 [Compound 25]
MIC ([3]; read-out: MIC): > 32 µg/mL
